Experimental data reported in article PMC6008489 (Bioorganic & Medicinal Chemistry, 2018).

Legend:
AurB = AurB (Homo sapiens, UniProt Q96GD4); test: 26-kinase panel mobility shift assay, single concentration; type: biochemical; settings: read-out: % Inhibition AurB
Description: Mobility Shift Assay Protocol
(§1) Screening of 26 kinases using a mobility shift assay
(§2) A mobility shift assay to determine kinase inhibition was carried out using a
(§3) modified version of the ProfilerPro assay kit 1 (Perkin Elmer, Coventry, UK)
(§4) including MPS1 and Aurora B. Each kit contained an enzyme plate, a substrate
(§5) plate, reconstitution buffer, 1 M DTT, protease inhibitor cocktail and termination
(§6) buffer. Test compounds were added as a solution in DMSO.
(§7) peptide phosphorylation assay was carried out as per the manufacturer’s
(§8) instructions. The electrophoretic separation and analysis of the phosphorylated
(§9) and non-phosphorylated peptides was carried out on a 4-sipper chip using a
(§10) LabChip EZReader II (Perkin Elmer). Results were expressed as % inhibition of
(§11) peptide phosphorylation relative to control wells for 0 % (no test compound) and
(§12) 100 % (no ATP) inhibition. The percentage inhibition was calculated using the
(§13) % Inhibition = [1 - (% Conversion Sample / % Conversion 0% Inhibition Control)] x 100

MPS1 = target: T1, MPS1 (Homo sapiens, UniProt P33981); type: biochemical; settings: for Ki: calculated from mean IC50 using the Cheng-Prusoff equation; for MPS1 ligand efficiency (LE): from Ki
T1 sequence (P33981 1-857): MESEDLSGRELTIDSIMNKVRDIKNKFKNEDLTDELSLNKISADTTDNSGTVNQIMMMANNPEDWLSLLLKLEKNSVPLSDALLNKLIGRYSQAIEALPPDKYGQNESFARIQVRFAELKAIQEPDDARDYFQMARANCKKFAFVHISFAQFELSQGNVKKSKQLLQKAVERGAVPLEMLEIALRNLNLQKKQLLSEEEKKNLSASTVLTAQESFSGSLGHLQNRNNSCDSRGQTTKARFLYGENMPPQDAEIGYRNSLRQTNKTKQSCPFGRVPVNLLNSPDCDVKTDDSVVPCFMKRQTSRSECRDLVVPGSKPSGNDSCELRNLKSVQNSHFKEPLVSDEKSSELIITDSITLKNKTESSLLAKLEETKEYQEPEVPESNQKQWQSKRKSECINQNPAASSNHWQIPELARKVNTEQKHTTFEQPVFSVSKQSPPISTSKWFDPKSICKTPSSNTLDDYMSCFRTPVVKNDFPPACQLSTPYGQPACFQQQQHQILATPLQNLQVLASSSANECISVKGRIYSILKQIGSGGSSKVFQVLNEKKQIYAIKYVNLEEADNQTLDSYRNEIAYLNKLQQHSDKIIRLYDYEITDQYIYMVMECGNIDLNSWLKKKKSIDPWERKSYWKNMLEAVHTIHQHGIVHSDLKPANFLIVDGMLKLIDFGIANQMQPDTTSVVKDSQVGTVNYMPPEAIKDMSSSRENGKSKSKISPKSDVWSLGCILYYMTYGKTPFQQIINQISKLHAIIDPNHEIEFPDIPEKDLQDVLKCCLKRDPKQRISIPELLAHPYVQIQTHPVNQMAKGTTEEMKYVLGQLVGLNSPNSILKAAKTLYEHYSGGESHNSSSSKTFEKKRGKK
Description: IC50 values were obtained for an expanded version of the fragment library using the previously described mobility shift assay.[44] Subsequently, Ki values were estimated from IC50 values to allow better comparison of the activity against targets which were measured at different substrate concentrations (Supplementary data Table 1).
IC50 values for MPS1, Aurora A and Aurora B inhibition were determined as previously described,[44] and Ki values were estimated from the mean IC50 values using the Cheng-Prusoff equation.[48]
Kinase [ATP] (M) [Enzyme] (nM) [Peptide Substrate] (M) MgCl2 (mM)
For all compounds, IC50 values for MPS1, Aurora A, and Aurora B were determined
using MPS1 and Aurora A/B mobility shift assays as described previously.1 IC50
values were calculated from a four-parameter logistic fit of percentage inhibition
versus concentration (at 8 compound concentrations) using GraphPad Prism 5
(GraphPad Software, Inc., CA, USA). Mean IC50 values were determined from two
independent measurements each carried out in duplicate. Ki values were estimated
from the mean IC50 values using the Cheng-Prusoff equation.

SRC = target: T2, SRC (Homo sapiens, UniProt P12931); test: 26-kinase panel mobility shift assay, single concentration; type: biochemical; settings: read-out: % Inhibition SRC
T2 construct: purchased Perkin Elmer (ProfilerPro assay kit 1)
Description: In order to test the biochemical activity of our fragment library, a panel of 26 structurally diverse protein kinases was used.
as §1, §2, §3, §4, §5, §6, §7, §8, §9, §10, §11, §12, §13

[1] = Solubility as noted for the kinase panel screen; type: physicochemical; settings: reason for screening at 30 µM instead of 100 µM

Chain of AurB (Q96GD4 whole entry): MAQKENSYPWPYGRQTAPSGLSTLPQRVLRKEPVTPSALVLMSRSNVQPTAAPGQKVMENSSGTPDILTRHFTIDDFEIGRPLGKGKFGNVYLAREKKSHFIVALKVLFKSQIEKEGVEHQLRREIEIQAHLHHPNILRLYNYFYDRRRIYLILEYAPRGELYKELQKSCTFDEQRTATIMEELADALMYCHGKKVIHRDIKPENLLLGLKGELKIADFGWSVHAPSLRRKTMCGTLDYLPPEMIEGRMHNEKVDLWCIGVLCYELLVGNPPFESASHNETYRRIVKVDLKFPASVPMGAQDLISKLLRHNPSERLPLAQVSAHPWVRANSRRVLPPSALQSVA
T2 sequence (P12931 whole entry): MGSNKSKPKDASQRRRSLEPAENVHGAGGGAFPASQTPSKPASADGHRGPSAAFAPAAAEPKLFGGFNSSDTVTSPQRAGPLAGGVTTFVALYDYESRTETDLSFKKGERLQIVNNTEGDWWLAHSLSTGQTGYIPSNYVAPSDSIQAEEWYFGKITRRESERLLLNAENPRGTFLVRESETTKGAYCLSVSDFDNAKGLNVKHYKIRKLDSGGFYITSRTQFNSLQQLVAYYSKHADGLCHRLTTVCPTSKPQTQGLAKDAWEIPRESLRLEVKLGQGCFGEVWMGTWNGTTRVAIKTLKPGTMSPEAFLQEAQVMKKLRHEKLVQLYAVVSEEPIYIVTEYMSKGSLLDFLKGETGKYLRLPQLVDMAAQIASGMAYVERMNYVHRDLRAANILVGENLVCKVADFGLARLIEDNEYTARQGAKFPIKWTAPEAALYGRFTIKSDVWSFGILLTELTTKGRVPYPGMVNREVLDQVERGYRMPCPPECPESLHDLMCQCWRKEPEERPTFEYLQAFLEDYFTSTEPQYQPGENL

SMILES	inhibition at 100 µM (AurB)	Ki (MPS1)	inhibition at 100 µM (SRC)	MPS1 ligand efficiency (LE) (MPS1)	melting point	inhibition at 30 µM (AurB)	fold increase in inhibitory activity against MPS1 relative to compound 3 (MPS1; from Ki values, Table 1 and Table 2)	solubility (in words) [1]	inhibition at 30 µM (SRC)
Nc1ccc[nH]c1=O [Compound 1, 3-aminopyridin-2-one]	20%	> 1000 µM	31%	–	–	–	–	–	–
Cn1cc(-c2c[nH]c(=O)c(N)c2)cn1 [Compound 2, 3-Amino-5-(1-methyl-1H-pyrazol-4-yl)pyridin-2(1H)-one]	96%	94.7 µM	86%	0.39	264 °C	–	–	–	–
COc1ncc(-c2ccncc2)cc1N [Compound 5, 6-Methoxy-3,4′-bipyridin-5-amine]	35%	91.2 µM	8%	0.37	–	–	–	–	–
Nc1cc(-c2ccnc3ccccc23)c[nH]c1=O [Compound 6]	61%	30.2 µM	24%	0.34	–	–	–	–	–
CNc1nccc(-c2c[nH]c(=O)c(N)c2)n1 [Compound 7]	94%	25.6 µM	89%	0.39	–	–	–	–	–
Nc1cc(-c2ccnc(NC3CC3)n2)c[nH]c1=O [Compound 8]	79%	11 µM	46%	0.37	–	–	–	–	–
Cc1nc(O)c(N)cc1-c1ccncc1 [Compound 15, 3-Amino-6-methyl-5-(pyridin-4-yl)pyridin-2-one]	77%	> 100 µM	21%	–	–	–	–	–	–
O=C(Nc1cc(-c2ccncc2)c[nH]c1=O)c1ccccc1 [Compound 16, N-(2-Oxo-5-(pyridin-4-yl)-1,2-dihydropyridin-3-yl)benzamide]	–	5.4 µM	–	0.33	–	24%	15 fold	poor solubility	60%
CN1CCN(c2ccc(C(=O)Nc3cc(-c4ccncc4)c[nH]c3=O)cc2)CC1 [Compound 22]	–	4.8 µM	–	0.25	–	71%	–	poor solubility	98%
O=C(Nc1cc(-c2ccnc(NC3CC3)n2)c[nH]c1=O)c1ccccc1 [Compound 24]	–	3.2 µM	–	0.29	–	91%	–	poor solubility	99%
